Experimental data from ChEMBL document CHEMBL3588819, “Antiviral Limonoids Including Khayanolides from the Trang Mangrove Plant Xylocarpus moluccensis” (J Nat Prod, 2015).

Test system: Influenza A virus
Assay: Antiviral activity against influenza A virus (A/Puerto Rico/8/34(H1N1)) infected in MDCK cells assessed as inhibition of virus-induced cytopathic effect incubated for 48 hrs by crystal violet staining based assay
Type: functional, organism-based
Details: A/Puerto Rico/8/1934(H1N1)

SMILES	IC50 [µM]
COC(=O)C[C@@H]1[C@@]2(C)[C@H]3CC[C@]4(C)C(=C3[C@@]3(O)[C@@H](OC(C)=O)C(=O)[C@]1(C)C[C@@]23O)CC(=O)O[C@H]4c1ccoc1	77.1
COC(=O)C[C@H]1[C@@]2(C)C[C@]3(O)[C@H](C(=O)[C@H]2OC(C)=O)C2=C4CC(=O)O[C@@H](c5ccoc5)[C@]4(C)CC[C@@H]2[C@]13C	114
COC(=O)C[C@H]1[C@@]2(C)C[C@]3(O)[C@H](C(=O)[C@H]2OC(C)=O)C2=C(CC[C@]4(C)C2=CC(=O)O[C@H]4c2ccoc2)[C@]13C	122
NC(=O)c1ncn([C@@H]2O[C@H](CO)[C@@H](O)[C@H]2O)n1 [RIBAVIRIN]	186
